Assays:
[1] = in vitro; details: dog, CC50 (cytotoxic concentration 50%), compound-treated uninfected MDCK cells, 48 h, cell viability
[2] = system: influenza A H3N2 virus; experiment: Antiviral activity in influenza A virus-infected MDCK cells (prevention of virus-induced cytopathicity, CellTiter-Glo, 48 h); assay type: cell-based, influenza A virus A/Aichi/2/68 (H3N2); details: for antiviral activity (in words): influenza A H3N2-infected MDCK cells, up to 250 µM; for IC50: Influenza A virus, H3N2, MDCK, 48 h, MDCK cells infected with influenza A H3N2, MOI 0.05, compound added with virus, read-out: IC50 (half-maximal inhibitory concentration, antiviral activity); for fold more active compared to GL: ratio of antiviral IC50 values versus lead compound GL
Procedure: For biological testing the compounds were dissolved in DMSO and diluted in cell culture medium to a maximum final DMSO concentration of 1%. For determination of the cytotoxicity of the compounds, MDCK cells were treated with compound concentrations ranging from 3.1 µM to 250 µM for 48 h and then cell viability was determined as a surrogate endpoint for cytotoxicity. […] GL was not toxic at 2500 µM (Table 1). The antiviral activity of the compounds was determined by infecting MDCK cells with influenza A H3N2 virus and treating them with different concentrations of compounds at the same time. […] Compound 16 containing only the N-succinyl substituent is a close analogue to CBX bearing an amide instead of the ester group. […] This was further supported by the data obtained with compound 23 containing a 1-thioethyl-linked glucuronic acid residue at position 3 of 1,2-dehydro-glycyrrhetinic acid.
The influenza A virus (IAV) was obtained from American Tissue Culture Collection (A/Aichi/2/68 (H3N2); VR-547). Virus stocks were prepared by propagation of virus on Mardin-Darby canine kidney (MDCK; ATCC CCL-34) cells and infectious titers of virus stocks were determined by the 50% tissue culture infective dose (TCID50) analysis as described in [5].
MDCK cells were seeded in 96-well plates at 2×10^4 cells/well using DMEM/Ham’s F-12 (1:1) medium containing 10% foetal bovine serum (FBS), 2 mM L-glutamine and 1% antibiotic– antimycotic solution (penicillin, 10.000 units/mL; streptomycin, sulfate 10 mg/mL; Amphotericin B, 25 µg/ml) (all from PAA). Until infection the cells were incubated for 5 h at 37 °C/5.0% CO2 to form a ~80% confluent monolayer on the bottom of the well. Test compounds were dissolved in DMSO and dilution series were prepared in infection medium (DMEM/Ham’s F-12 (1:1) containing 5 µg/mL trypsin (Sigma T4945), and 1% antibiotic–antimycotic solution) resulting in a final plate well DMSO concentration of 1%. The virus stock was generally diluted in infection medium (DMEM/Ham’s F-12 (1:1) containing 5 µg/mL trypsin, 1% DMSO, and 1% antibiotics) to a theoretical multiplicity of infection (MOI) of 0.05. After removal of the culture medium and one washing step with PBS, the virus and compound solution were added together to the cells. In the wells used for cytotoxicity determination (uninfected cells), the virus suspension was replaced by infection medium. Each treatment was conducted in two replicates. After incubation at 37 °C, […]
formation, or other notable abnormalities. Then, cell viability was determined by using CellTiter-Glo luminescent cell viability assay (Promega). The supernatant was removed carefully and 65 µL of the reconstituted reagent was added to each well and incubated for 15 min at room temperature under gentle shaking. Then, 60 µL of the solution was transferred to an opaque plate and luminescence (RLU) was measured by using a Synergy HT plate reader (Biotek). The […]
compounds were titrated on virus-infected MDCK cells and the response (RLU) was used to determine the IC50 value by using a 4-parameter logistic equation (GraphPad Prism) whereby the top and bottom of the curve were defined by the response (RLU) of untreated uninfected cells and untreated infected cells, respectively. The cytotoxicity of the compounds was determined by titration on uninfected MDCK cells, and the response (RLU) was used to determine the CC50 value by using a 4-parameter logistic equation whereby the top of the curve was defined by the response (RLU) of untreated uninfected cells. […]

[3] = system: MDCK cells; details: uninfected MDCK cells, 3.1 µM to 250 µM, 48 h

CC1(C)[C@@H](O)CC[C@]2(C)[C@H]3C(=O)C=C4[C@@H]5C[C@@](C)(C(=O)O)CC[C@]5(C)CC[C@@]4(C)[C@]3(C)CC[C@@H]12 [GA, glycyrrhetinic acid, reference compound]
CC50 [1]: 7.4 ± 0.05 µM | antiviral activity (in words) [2]: did not show any antiviral activity at nontoxic concentrations

COC(=O)[C@H]1O[C@@H](SCCN(C(C)=O)[C@H]2CC[C@@]3(C)C(CC[C@]4(C)C3C(=O)C=C3[C@@H]5C[C@@](C)(C(=O)O)CC[C@]5(C)CC[C@]34C)C2(C)C)[C@H](O)[C@@H](O)[C@@H]1O (some centres unmarked) [Compound 14]
IC50 [2]: 72.1 µM | fold more active compared to GL [2]: approximately 14 fold

COC(=O)CCC(=O)N(CCS[C@@H]1O[C@H](C(=O)OC)[C@@H](O)[C@H](O)[C@H]1O)[C@H]1CC[C@@]2(C)C(CC[C@]3(C)C2C(=O)C=C2[C@@H]4C[C@@](C)(C(=O)O)CC[C@]4(C)CC[C@]23C)C1(C)C (some centres unmarked) [Compound 18]
CC50 [1]: > 250 µM | IC50 [2]: 125 ± 15.9 µM | fold more active compared to GL [2]: 8 fold

CC1(C)C2CC[C@]3(C)C(C(=O)C=C4[C@@H]5C[C@@](C)(C(=O)O)CC[C@]5(C)CC[C@]43C)[C@@]2(C)CC[C@@H]1NC(=O)CCC(=O)O (some centres unmarked) [Compound 16, reference compound]
CC50 [1]: > 250 µM | cytotoxicity (in words) [3]: not toxic | IC50 [2]: > 250 µM | antiviral activity (in words) [2]: inactive

CC1(C)[C@@H](OC(=O)CCC(=O)O)CC[C@]2(C)[C@H]3C(=O)C=C4[C@@H]5C[C@@](C)(C(=O)O)CC[C@]5(C)CC[C@@]4(C)[C@]3(C)CC[C@@H]12 [CBX, carbenoxolone, reference compound]
CC50 [1]: 17.8 ± 2.3 µM | cytotoxicity (in words) [3]: toxic at low concentrations | antiviral activity (in words) [2]: did not show any antiviral activity at nontoxic concentrations

CC(=O)N(CCS[C@@H]1O[C@H](C(=O)O)[C@@H](O)[C@H](O)[C@H]1O)[C@H]1CC[C@@]2(C)C(CC[C@]3(C)C2C(=O)C=C2[C@@H]4C[C@@](C)(C(=O)O)CC[C@]4(C)CC[C@]23C)C1(C)C (some centres unmarked) [Compound 15]
CC50 [1]: > 250 µM | IC50 [2]: 87 ± 7.9 µM | antiviral activity (in words) [2]: IC50 value in the same range as the methyl ester 14

CC1(C)C(SCCS[C@@H]2O[C@H](C(=O)O)[C@@H](O)[C@H](O)[C@H]2O)C=C[C@@]2(C)C1CC[C@]1(C)C2C(=O)C=C2[C@@H]3C[C@@](C)(C(=O)O)CC[C@]3(C)CC[C@]21C (some centres unmarked) [Compound 23]
CC50 [1]: > 250 µM | cytotoxicity (in words) [3]: no cytotoxicity at the concentrations tested | IC50 [2]: 54 ± 13 µM

CC1(C)C2CC[C@]3(C)C(C(=O)C=C4[C@@H]5C[C@@](C)(C(=O)O)CC[C@]5(C)CC[C@]43C)[C@@]2(C)CC[C@@H]1N(CCS[C@@H]1O[C@H](C(=O)O)[C@@H](O)[C@H](O)[C@H]1O)C(=O)CCC(=O)O (some centres unmarked) [Compound 19]
CC50 [1]: > 250 µM | IC50 [2]: > 250 µM

COC(=O)[C@H]1O[C@@H](SCCN[C@H]2CC[C@@]3(C)C(CC[C@]4(C)C3C(=O)C=C3[C@@H]5C[C@@](C)(C(=O)O)CC[C@]5(C)CC[C@]34C)C2(C)C)[C@H](O)[C@@H](O)[C@@H]1O (some centres unmarked) [Compound 12]
CC50 [1]: > 250 µM | IC50 [2]: 220 ± 41 µM | fold more active compared to GL [2]: 4.7 fold

CC1(C)[C@@H](O[C@H]2O[C@H](C(=O)O)[C@@H](O)[C@H](O)[C@H]2O[C@@H]2O[C@H](C(=O)O)[C@@H](O)[C@H](O)[C@H]2O)CC[C@]2(C)[C@H]3C(=O)C=C4[C@@H]5C[C@@](C)(C(=O)O)CC[C@]5(C)CC[C@@]4(C)[C@]3(C)CC[C@@H]12 [GL, glycyrrhizin]
CC50 [1]: > 2500 µM | IC50 [2]: 1030 ± 181 µM

CC1(C)C2CC[C@]3(C)C(C(=O)C=C4[C@@H]5C[C@@](C)(C(=O)O)CC[C@]5(C)CC[C@]43C)[C@@]2(C)CC[C@@H]1NCCS[C@@H]1O[C@H](C(=O)O)[C@@H](O)[C@H](O)[C@H]1O (some centres unmarked) [Compound 13]
CC50 [1]: > 250 µM | IC50 [2]: > 250 µM
